Measurements from ChEMBL document CHEMBL2046391, “Calyxamides A and B, cytotoxic cyclic peptides from the marine sponge Discodermia calyx” (J Nat Prod, 2012).
The source made the active and inactive calls.

Key:
Caco-2 = assay: Antiproliferative activity against human Caco2 cells at 100 uM by XTT assay; format: functional, cell-based
MCF7 = assay: Antiproliferative activity against human MCF7 cells at 100 uM by XTT assay; format: functional, cell-based
Escherichia coli = assay: Antimicrobial activity against Escherichia coli at 100 ug/disc measured every 24 hrs for 4 days by disc diffusion method; format: functional, organism-based
Bacillus cereus = assay: Antimicrobial activity against Bacillus cereus at 100 ug/disc measured every 24 hrs for 4 days by disc diffusion method; format: functional, organism-based
Colletotrichum acutatum = assay: Antimicrobial activity against Colletotrichum acutatum at 100 ug/disc measured every 24 hrs for 4 days by disc diffusion method; format: functional, organism-based
Botrytis cinerea = assay: Antimicrobial activity against Botrytis cinerea at 100 ug/disc measured every 24 hrs for 4 days by disc diffusion method; format: functional, organism-based
Beauveria bassiana = assay: Antimicrobial activity against Beauveria bassiana ARSEF 8354 at 100 ug/disc measured every 24 hrs for 4 days by disc diffusion method; format: functional
Saccharomyces cerevisiae = assay: Antimicrobial activity against Saccharomyces cerevisiae at 100 ug/disc measured every 24 hrs for 4 days by disc diffusion method; format: functional, organism-based
Drosophila melanogaster = assay: Insecticidal activity against Drosophila melanogaster at 100 ug; format: functional, organism-based
Aedes aegypti = assay: Insecticidal activity against Aedes aegypti larvae at 100 ug/mL after 24 hrs; format: functional, organism-based
Lactuca sativa = assay: Phytotoxicity against lettuce seedling at 50 ug/mL by seedling elongation assay; format: functional, organism-based

Measured: Activity

CC[C@H](C)C[C@H](C)[C@H]1OC(=O)[C@H](Cc2ccccc2)NC(=O)/C(C)=C/[C@H](C)[C@@H](O)/C(C)=C/[C@H](C)[C@H](O)/C(C)=C\[C@@H]1C
inactive: Caco-2 | MCF7

CC[C@H](C)C[C@H](C)[C@H]1OC(=O)[C@H](Cc2ccccc2)NC(=O)/C(C)=C/[C@H](C)[C@@H](O)/C(C)=C/[C@H](C)[C@H](OC(C)=O)/C(C)=C/[C@@H]1C
not listed: Caco-2 | MCF7
inactive: all other assays above
